“Also recorded” adds a separate entry of the source.
Legend:
[1] = system: human pancreatic cancer cells (PSN-1 line); assay: Antitumor effect on human pancreatic cancer cells (2), cell count after transfection; assay type: cell-based; conditions: 10 pmol/well, 48 hours, FIG. 9
Protocol: (§1) A cell suspension prepared by suspending human pancreatic cancer cells (Bxpc3 line) in D-MEM medium (containing 10% by volume FBS) was seeded in each well of a 24-well plate at 3×10^3 cells/well, followed by culture at 37° C. overnight. Thereafter, according to the lipofectamin 2000 protocol, each miRNA was transfected at 10 pmol/well, and 48 hours later, the cells were counted. In addition, tests were also conducted under the same condition on a case where the miRNA was not introduced (untreated group), a case where hsa-miR-34a (SEQ ID NO: 8) was used (positive control) in place of the miRNA, and a case where a control miRNA (SEQ ID NO: 9) was used (control miRNA, negative control) in place of the selected miRNA.
As to hsa-miR-136-5p, hsa-miR-3065-3p and hsa-miR-181a-5p, evaluation was performed of the antitumor effect on human pancreatic cancer cells. The specific test method is the same as that for Test Example 4 except that a PSN-1 line was used as human pancreatic cancer cells.

[2] = system: human esophageal cancer cells (TE11 line); assay: Antitumor effect on human esophageal cancer cells, cell count after transfection; assay type: cell-based; conditions: 10 pmol/well, FIG. 12
Protocol: as §1
(§2) As to hsa-miR-136-5p, hsa-miR-3065-3p, hsa-miR-4727-5p, hsa-miR-378g and hsa-miR-181a-5p, evaluation was performed of the antitumor effect on human esophageal cancer cells. The specific test method is the same as that for Test Example 4 except that human esophageal cancer cells (TE11 line) were used as cancer cells, and that the cells were counted 72 hours after transfection.

[3] = system: cancer stem cell population (ZsGreen+) established from pancreatic cancer cell line Panc-1; assay: Screening of miRNAs: cell count (cell viability) of the cancer stem cell population after transfection; assay type: cell-based, human; conditions: miRNA 10 pmol/well, lipofectamin 2000, cells counted 48 and 72 hours later, FIG. 4
From the text: A cancer stem cell line was established by transducing a pancreatic cancer cell line (Panc-1) with an ODC (Ornithine Decarboxylase)-Degron system capable of visualizing low metabolism that is a property of cancer stem cells using a retrovirus vector (FIG. 1a). The base sequence coding the used ODC-Degron is as set forth in SEQ ID NO: 10. Usually, cancer stem cells are so 26s proteasome hypometabolic that they cannot degrade the introduced fluorescently labeled Ornithine Decarboxylase Degron, and thus the fluorescent protein sufficiently accumulates to provide visualization.
However, even when the ODC-degron system was introduced into the pancreatic cancer cell line Panc-1, only about 0.06% cells emitting fluorescence (green) were obtained in total. With such a small number of cancer stem cells, a series of experiments including drug screening cannot be performed. Accordingly, further enrichment of cancer stem cells provided a cancer stem cell population in which cells having observed fluorescent coloring (i.e., cancer stem cells) accounted for about 81.18% in total (FIG. 1b). The obtained cancer stem cell population was designated as ZsGreen+.
A cell suspension prepared by suspending the cancer stem cell population (ZsGreen+) in a medium (DMEM medium containing 10% by volume FBS) was seeded in each well of a 24-well plate at a density of 5000 to 10000 cells/well, followed by culture at 37° C. overnight. Thereafter, according to the lipofectamin 2000 protocol, each miRNA was transfected at 10 pmol/well, and 48 hours and 72 hours later, the cells were counted. In addition, tests were also conducted under the same condition on a case where the miRNA was not introduced (untreated group, control), a case where has-miR-34a (SEQ ID NO: 8) was used (positive control) in place of the selected miRNA, and a case where a control miRNA (SEQ ID NO: 9) was used (NC1, negative control) in place of the selected miRNA. In addition, for comparison, the non-cancer stem cell population (ZsGreen−) was used in place of the cancer stem cell population (ZsGreen+) to conduct tests under the same condition.
The ratio of the number of cells under each condition to the number of control cells into which the miRNA was not introduced (cell viability, %) was determined.

[4] = system: human gastric cancer cells (AGS line); assay: Antitumor effect on human gastric cancer cells, cell count after transfection; assay type: cell-based; conditions: 10 pmol/well, 48 hours, FIG. 10
Protocol: as §1
As to hsa-miR-136-5p, hsa-miR-3065-3p and hsa-miR-181a-5p, evaluation was performed of the antitumor effect on human gastric cancer cells. The specific test method is the same as that for Test Example 4 except that human gastric cancer cells (AGS line) were used as cancer cells.

[5] = system: human large bowel cancer cells (DLD1 line); assay: Antitumor effect on human large bowel cancer cells, cell count after transfection; assay type: cell-based; conditions: 10 pmol/well, FIG. 11
Protocol: as §1
as §2, with “hsa-miR-378g, hsa-miR-181a-5p, hsa-miR-362-5p” for “hsa-miR-378g”, “hsa-miR-608,” for “hsa-miR-181a-5p,”, “large bowel” for “esophageal”, “(DLD1” for “(TE11”

[6] = system: human pancreatic cancer cells (Bxpc3 line); assay: Antitumor effect on human pancreatic cancer cells (1), cell count after transfection; assay type: cell-based; conditions: 10 pmol/well, FIG. 8
Protocol: as §1

[7] = system: solid tumor from the cancer stem cell population (ZsGreen+); assay: Mouse subcutaneous solid tumor model test; assay type: in vivo, BALB/cA nude mice; conditions: carbonate apatite nanoparticles containing the miRNA, 40 μg/dose, tail vein i.v., days 0-19; tumor excised on the 24th day
Protocol: In 100 ml of distilled water, 0.37 g of NaHCO3, 90 μl of NaH2PO4.2H2O (1M) and 180 μl of CaCl2 (1 M) were added in this order and dissolved, and the pH was adjusted to 7.5 with 1N HCl. This was filtered through 0.2 μm diameter filter. Per 1 ml of the resultant buffer, 2 μg of miRNA and 4 μl of CaCl2 (1 M) were mixed and incubated in a water bath at 37° C. for 30 minutes. Then, spin down was performed at 15000 rpm×5 minutes. The resultant pellet was dispersed in physiological saline (containing 0.5 wt % albumin). Accordingly, a dispersion of composite particles containing the miRNA in carbonate apatite particles was obtained. The resultant dispersion was subjected to ultrasonic vibration treatment for 10 minutes just prior to testing. Note that the ultrasonic vibration treatment was performed for 10 minutes using a water bath with an ultrasonic vibration function, in which the dispersion contained in a plastic container was floated on water set to 20° C., under conditions of high frequency output of 55 W and oscillation frequency of 38 kHz. The preparation obtained in this way was immediately used for the tests described below.
Note that it is confirmed in the measurement using a scanning probe microscope that the dispersion of ultrasonic vibration treatment includes composite particles composed of carbonate apatite nanoparticles containing the miRNA having an average particle diameter of 50 nm or less. It is also confirmed that the resultant composite particles contain about 20 μg of the miRNA per 1 mg of carbonate apatite.
The cancer stem cell population (ZsGreen+) obtained in Test Example 1 was subcutaneously injected at 5×10^5 cells to the left and right backs of 6 to 8 weeks age BALB/cA nude mice (manufactured by CLEA Japan, Inc.) to produce solid tumor model mice. When the tumor reached about 20 mm^3 in size, the mice were randomly divided into an hsa-miR-136-5p administration group (hsa-miR-136-5p), an untreated group, and a negative control group (control miRNA). In the hsa-miR-136-5p administration group, the day at which the tumor reached about 20 mm^3 in size was 0th day. On the 0th, 3rd, 5th, 7th, 10th, 12th, 14th, 17th and 19th days, carbonate apatite nanoparticles containing the hsa-miR-136-5p were intravenously injected into the tail vein at 40 μg/dose in terms of the amount of hsa-miR-136-5p. In the negative control group, carbonate apatite nanoparticles containing a control miRNA (SEQ ID NO: 9) were intravenously injected into the tail vein at the same schedule and dose as those for the miRNA136-5p administration group. In the untreated group, no drug was administered. During the test period, the tumor volume on the back of the mouse (longer diameter×shorter diameter×shorter diameter×1/2) was measured over time, and on the 24th day, the tumor was excised from the mice and observed for size, and its weight was measured.
A mouse subcutaneous solid tumor model test was conducted in the same manner as in Test Example 2 except that hsa-miR-3065-3p was used in place of hsa-miR-136-5p.
A mouse subcutaneous solid tumor model test was conducted in the same manner as in Test Example 2 except that hsa-miR-181-5p was used in place of hsa-miR-136-5p.

[8] = 72 hours, positive control hsa-miR-34a
[9] = cells counted 72 hours after transfection

hsa-miR-181a-5p: human-derived miR-181a-5p; base sequence set forth in SEQ ID NO: 5 as mature miRNA (AACAUUCAACGCUGUCGGUGAGU; listed as RNA, chemistry not given here; listed as Homo sapiens)
proliferation inhibitory effect on pancreatic cancer cells [1]: strong proliferation inhibitory effect
antitumor effect [2, 8]: much better antitumor effect than that of hsa-miR-34a; also recorded: particularly remarkable antitumor effect
proliferation inhibitory effect on esophageal cancer cells [2, 9]: strong proliferation inhibitory effect
proliferation inhibitory effect on cancer stem cells (cell viability) [3]: effectively suppress proliferation of cancer stem cells; also recorded: prominent proliferation inhibitory effect
proliferation inhibitory effect on gastric cancer cells [4]: strong proliferation inhibitory effect
antitumor effect ([4]; positive control hsa-miR-34a): much better antitumor effect than that of hsa-miR-34a; also recorded: particularly remarkable antitumor effect
antitumor effect [5, 8]: much better antitumor effect than that of hsa-miR-34a; also recorded: particularly remarkable antitumor effect
proliferation inhibitory effect on large bowel cancer cells [5, 9]: strong proliferation inhibitory effect
antitumor effect ([6]; 48 hours, positive control hsa-miR-34a): much better antitumor effect than that of hsa-miR-34a
proliferation inhibitory effect on pancreatic cancer cells ([6]; cells counted 48 hours later): strong proliferation inhibitory effect
antitumor effect as compared to the untreated group and the negative control group (control miRNA) [7]: remarkably higher antitumor effect
